Measured values published in patent publication US11084852B2, “Ubiquitin interacting motif peptides as therapeutics” (OKLAHOMA MEDICAL RESEARCH FOUNDATION, priority 2015, dated 2021).
No end group written: not given here.

Experiments:
[1] = HFD-induced obesity model; assay type: in vivo; conditions: i.p., mice fed HFD
Excerpt: FIGS. 33A-C. […] (FIG. 33A) Male and (FIG. 33B) Female mice, n=8 in each group; P<0.001. (FIG. 33C) Representative image of PBS or AP-UIM peptide administration for 3 months.
The inventors have tested a UIM peptide (AP-UIM) in HFD-induced obesity model.

ER stress = ER stress and inflammation after IP3R1 downregulation; assay type: cell-based
Excerpt: FIGS. 22A-D. Downregulation of IP3R1 by epsins augments ER stress-mediated inflammation in Endothelium. (FIG. 22A) Deletion of IP3R1 auguments ER stress mediated by athero-prone substances. (FIG. 22B) Inhibition of ER stress by 4-PBA protected athero-prone substances mediated ER stress due to loss of IP3R1. (FIG. 22C) Loss of epsins auguments NF-kB signaling. (FIG. 22D) NF-kB augmentation can be prevented by ER stress inhibitor 4-PBA.

Row | Compound | body weight gain [1] | ER stress and inflammation (ER stress)
1 | AP-UIM: Antennapedia (penetratin) conjugated to the N-terminus of the epsin UIM peptide, SEQ ID NO: 40 (RQIKIWFQNRRMKWKKSGEEELQLQLALAMSKEE; not fully specified (some residues)) | significantly attenuated body weight gain | 
2 | O=C(O)CCCc1ccccc1 [4-PBA] |  | inhibits ER stress and inflammation
